Patent US11045416B2, “Topical compositions comprising Pichia anomala and retinol” (Johnson & Johnson Consumer Inc., priority 2018, dated 2021)

Tested on: Heparin Binding Epidermal Growth Factor (HBEGF)
Assay: HBEGF gene expression in human skin explants by qPCR (Example 3)
Assay type: cell-based
Settings: 4 μL topically, 48 hours; observed minus untreated (100)
Procedure: First, abdominal skin samples were obtained from human adults undergoing abdominoplasty surgery. Informed consent was obtained from each patient, and all experimental steps were approved by an institutional review board (IRB). Subcutaneous fat was carefully removed and skin biopsies of 0.93 cm^2 were prepared under sterile conditions and acclimated in keratinocyte growth media sold under the tradename KGM-GOLD BULLETKIT (Lonza, Walkersville, Md.), with 10% antibiotics under a 5% CO2 humidified atmosphere overnight.
The skin explants were treated topically with 4 μL of the various formulations and left to incubate for 48 hours. An untreated explant sample was used as the control. In the case of combined application of Composition 5 and the 5% solution of Pichia anomala extract, 4 μL of each were applied. At the end of the 48 h, epidermis and dermis were separated by heating. […]
Gene expression assays were performed by real time quantitative polymerase chain reaction (PCR) based on the SyBR green method. qPCR was run on a real time PCR system sold under the tradename CFX96 TOUCH (Bio-Rad Laboratories, Inc., Hercules, Calif.). […] The fold changes were calculated in comparison to the untreated controls and ANOVA statistical test was performed.

**Q.** How did the “HBEGF expression, Observed Normalized to untreated” value turn out when `CC1=C(/C=C/C(C)=C/C=C/C(C)=C/CO)C(C)(C)CCC1` [retinol, Retinol] was run?
**A.** 291
